Experimental data from patent publication US5068247A, “2-aminopentanoic acid compounds and their use as immunosuppressants” (priority 1989, dated 1991).

Experiments:
[1] = test system: anti-sheep red blood cell antibody production; assay: suppression of mouse anti-sheep red blood cell antibody production; format: in vivo; details: for Body weight at 4 days later / Body weight on immunized day / Number of PFC per 1 × 10^7 cell / Number of PFC per spleen / Number of spleen cells / Suppression of number of PFC per 1 × 10^7 cell / Suppression of number of PFC per spleen / Wet weight of spleen / Wet weight of thymus: 4 days
Description: Male 5- to 7-week-old BALB/c mice were immunized with sheep red blood cells (5×10^7 cells/mouse, intravenous administration), and the test substance was administered intraperitoneally at the dose of 3 to 10 mg/kg/day for 4 consecutive days from the day of immunization. Four days after immunization, the spleen was resected, and suppression of anti-sheep red blood cell antibody production was examined by counting the number of plaque-forming cells (PFC) by direct plaque method using sheep red blood cells and guinea pig complement. At the same time, the body weight of the mouse, wet weight of the thymus and the spleen, and the number of spleen cells were also determined.

[2] = test system: IL-1 response of mouse thymocytes; assay: suppression of the IL-1 response of mouse thymocytes; format: cell-based; details: IL-1 50 U/ml
Description: The thymus was resected from 6-week-old male C3H/HeN mice, and a single cell suspension was prepared using the serum-free RPMI1640 culture medium. After washing three times, the cell suspension was adjusted to a concentration of 1.5×10^7 cells/ml in the RPMI1640 culture medium supplemented with 10^-4 M 2-mercaptoethanol and 20% FCS. […] After termination of culture, 18.5 KBq/well of ^3 H-thymidine was added thereto. After culturing the suspension for further 18 hours, the cells were harvested by a cell harvester, and the radioactivity incorporated into the cells was measured by a liquid scintillation counter, which was used as an index of IL-1, IL-2 or IL-4 response. The suppression of IL-1, IL-2 or IL-4 response was evaluated by calculating the percent suppression by the following formula. [formula]

[3] = test system: mouse acute graft versus host reaction (GVHR); assay: suppression of mouse acute graft versus host reaction (GVHR); format: in vivo
Description: C57BL/6 mouse spleen cell suspension (2×10^7 cells/mouse) was injected into the right hind footpad of 5- to 7-week-old BDF1 female mice. Seven days after injection, right popliteal lymph node was resected to measure the weight thereof and compare the weight with that of the left popliteal lymph node of the control mice injected with physiological saline, which was used as an index of acute graft versus host reaction (GVHR). The compound of Example 5 was administered intraperitoneally at the dose of 0.3 mg/kg, orally at the dose of 1 mg/kg and intramuscularly at the doses of 0.3 and 1 mg/kg for 6 days from the day of injection, and at the seventh day, the weight of the right poples lymphonodus was measured.

[4] = test system: IL-4 response of mouse thymocytes; assay: suppression of the IL-4 response of mouse thymocytes; format: cell-based; details: for inhibition at 0.0001 µg/mL / inhibition at 0.001 µg/mL / inhibition at 0.01 µg/mL / inhibition at 0.1 µg/mL / inhibition at 1 µg/mL: Mus musculus, Thymocyte, 72 h
Description: (§1) The thymus was resected from 6-week-old male C3H/HeN mice, and a single cell suspension was prepared using the serum-free RPMI1640 culture medium. After washing three times, the cell suspension was adjusted to a concentration of 1.5×10^7 cells/ml in the RPMI1640 culture medium supplemented with 10^-4 M 2-mercaptoethanol and 20% FCS. […] After culturing the suspension for further 18 hours, the cells were harvested by a cell harvester, and the radioactivity incorporated into the cells was measured by a liquid scintillation counter, which was used as an index of IL-1, IL-2 or IL-4 response. The suppression of IL-1, IL-2 or IL-4 response was evaluated by calculating the percent suppression by the following formula. [formula]

[5] = test system: IL-2 response of mouse thymocytes; assay: suppression of the IL-2 response of mouse thymocytes; format: cell-based; details: for inhibition at 0.0001 µg/mL / inhibition at 0.001 µg/mL / inhibition at 0.01 µg/mL / inhibition at 0.1 µg/mL / inhibition at 1 µg/mL: Mus musculus, Thymocyte, 72 h
Description: as §1

`CCCCCCCCCCCCCCCC[C@@H](O)[C@H](O)[C@@](N)(CO)C(=O)O` [Example 2] was tested, and the “Body weight at 4 days later” value ([1]; 3 mg/kg/day ip) was 24 ± 1 g, the “Body weight on immunized day” value ([1]; 3 mg/kg/day ip) was 22 ± 1 g and the “Number of PFC per 1 × 10^7 cell” value ([1]; 3 mg/kg/day ip) was 5.5 ± 0.8 × 10^3 /1 × 10^7 cell. The “Number of PFC per spleen” value ([1]; 3 mg/kg/day ip) was 17.9 ± 3.6 × 10^4 /spleen, the “Number of spleen cells” value ([1]; 3 mg/kg/day ip) was 3.3 ± 0.5 × 10^8 cell and the “Suppression of number of PFC per 1 × 10^7 cell” value ([1]; 3 mg/kg/day ip) was 36.8%. The “Suppression of number of PFC per spleen” value ([1]; 3 mg/kg/day ip) was 23.2%, the “Wet weight of spleen” value ([1]; 3 mg/kg/day ip) was 58 ± 11 mg and the “Wet weight of thymus” value ([1]; 3 mg/kg/day ip) was 318 ± 42 mg. For the same compound, the “Body weight at 4 days later” value ([1]; 10 mg/kg/day ip) was 23 ± 1 g, the “Body weight on immunized day” value ([1]; 10 mg/kg/day ip) was 22 ± 1 g and the “Number of PFC per 1 × 10^7 cell” value ([1]; 10 mg/kg/day ip) was 4.0 ± 2.0 × 10^3 /1 × 10^7 cell. For the same compound, the “Number of PFC per spleen” value ([1]; 10 mg/kg/day ip) was 10.2 ± 5.5 × 10^4 /spleen, the “Number of spleen cells” value ([1]; 10 mg/kg/day ip) was 2.5 ± 0.2 × 10^8 cell and the “Suppression of number of PFC per 1 × 10^7 cell” value ([1]; 10 mg/kg/day ip) was 54.9%. The “Suppression of number of PFC per spleen” value ([1]; 10 mg/kg/day ip) was 56.2%, the “Wet weight of spleen” value ([1]; 10 mg/kg/day ip) was 58 ± 10 mg and the “Wet weight of thymus” value ([1]; 10 mg/kg/day ip) was 233 ± 25 mg. For the same compound, the “effect on anti-sheep red blood cell antibody production (in words)” value ([1]; ip) was “exhibits suppressive effect on anti-sheep red blood cell antibody production”.

In the case of `CCCCCCCCCCCCC/C=C/C[C@@H](O)[C@H](O)[C@@](N)(CO)C(=O)O` [Example 5], the 3H-thymidine uptake ([2]; 0.0001 μg/ml) was 10320 ± 1490 cpm, the 3H-thymidine uptake ([2]; 0.001 μg/ml) was 7756 ± 686 cpm and the 3H-thymidine uptake ([2]; 0.01 μg/ml) was 1239 ± 548 cpm. It also gave a 3H-thymidine uptake ([2]; 0.1 μg/ml) of 595 ± 144 cpm, a 3H-thymidine uptake ([2]; 1 μg/ml) of 419 ± 36 cpm and an inhibition at 0.0001 µg/mL ([2]; Mus musculus, Thymocyte, 72 h, 0.0001 μg/ml) of 11.3%. It also gave an inhibition at 0.001 µg/mL ([2]; Mus musculus, Thymocyte, 72 h, 0.001 μg/ml) of 33.7%, an inhibition at 0.01 µg/mL ([2]; Mus musculus, Thymocyte, 72 h, 0.01 μg/ml) of 90.7% and an inhibition at 0.1 µg/mL ([2]; Mus musculus, Thymocyte, 72 h, 0.1 μg/ml) of 96.3%. For the same compound, the inhibition at 1 µg/mL ([2]; Mus musculus, Thymocyte, 72 h, 1 μg/ml) was 97.8%, the “Body weight 7 days after injection” value ([3]; 0.3 mg/kg/day im × 6) was 20.0 ± 0.7 g and the “Popliteal lymph node weight” value ([3]; 0.3 mg/kg/day im × 6) was 2.88 ± 0.58 mg. The Suppression ([3]; 0.3 mg/kg/day im × 6) was 60.0%, the “Body weight 7 days after injection” value ([3]; 0.3 mg/kg/day ip × 6) was 19.0 ± 2.2 g and the “Popliteal lymph node weight” value ([3]; 0.3 mg/kg/day ip × 6) was 4.46 ± 1.72 mg. For the same compound, the Suppression ([3]; 0.3 mg/kg/day ip × 6) was 38.1%, the “Body weight 7 days after injection” value ([3]; 1 mg/kg/day im × 6) was 18.8 ± 1.3 g and the “Popliteal lymph node weight” value ([3]; 1 mg/kg/day im × 6) was 2.28 ± 0.48 mg. For the same compound, the Suppression ([3]; 1 mg/kg/day im × 6) was 68.3%, the “Body weight 7 days after injection” value ([3]; 1 mg/kg/day po × 6) was 20.4 ± 0.6 g and the “Popliteal lymph node weight” value ([3]; 1 mg/kg/day po × 6) was 3.30 ± 0.64 mg. For the same compound, the Suppression ([3]; 1 mg/kg/day po × 6) was 54.2%, the “mouse acute graft versus host reaction (in words)” value ([3]; intraperitoneal, oral or intramuscular) was “strongly suppresses the mouse acute graft versus host reaction (GVHR)” and the 3H-thymidine uptake ([4]; 0.0001 μg/ml, IL-4 50 U/ml) was 3190 cpm. It also gave a 3H-thymidine uptake ([4]; 0.0001 μg/ml, IL-4 250 U/ml) of 45895 cpm, a 3H-thymidine uptake ([4]; 0.001 μg/ml, IL-4 50 U/ml) of 2025 cpm and a 3H-thymidine uptake ([4]; 0.001 μg/ml, IL-4 250 U/ml) of 39150 cpm. For the same compound, the 3H-thymidine uptake ([4]; 0.01 μg/ml, IL-4 50 U/ml) was 1385 cpm, the 3H-thymidine uptake ([4]; 0.01 μg/ml, IL-4 250 U/ml) was 33515 cpm and the 3H-thymidine uptake ([4]; 0.1 μg/ml, IL-4 50 U/ml) was 815 cpm. For the same compound, the 3H-thymidine uptake ([4]; 0.1 μg/ml, IL-4 250 U/ml) was 24655 cpm, the 3H-thymidine uptake ([4]; 1 μg/ml, IL-4 50 U/ml) was 885 cpm and the 3H-thymidine uptake ([4]; 1 μg/ml, IL-4 250 U/ml) was 21250 cpm. The inhibition at 0.0001 µg/mL ([4]; 0.0001 μg/ml, IL-4 50 U/ml) was 0%, the inhibition at 0.0001 µg/mL ([4]; 0.0001 μg/ml, IL-4 250 U/ml) was 13.1% and the inhibition at 0.001 µg/mL ([4]; 0.001 μg/ml, IL-4 50 U/ml) was 8%. It also gave an inhibition at 0.001 µg/mL ([4]; 0.001 μg/ml, IL-4 250 U/ml) of 26%, an inhibition at 0.01 µg/mL ([4]; 0.01 μg/ml, IL-4 50 U/ml) of 40.6% and an inhibition at 0.01 µg/mL ([4]; 0.01 μg/ml, IL-4 250 U/ml) of 36.8%. The inhibition at 0.1 µg/mL ([4]; 0.1 μg/ml, IL-4 50 U/ml) was 69.7%, the inhibition at 1 µg/mL ([4]; 1 μg/ml, IL-4 50 U/ml) was 66.2% and the inhibition at 1 µg/mL ([4]; 1 μg/ml, IL-4 250 U/ml) was 60.2%. It also gave an inhibition at 0.1 µg/mL ([4]; 0.1 μg/ml, IL-4 250 U/ml) of 46.3%, a 3H-thymidine uptake ([5]; 0.0001 μg/ml, IL-2 10 U/ml) of 2810 cpm and a 3H-thymidine uptake ([5]; 0.0001 μg/ml, IL-2 50 U/ml) of 63715 cpm. The 3H-thymidine uptake ([5]; 0.001 μg/ml, IL-2 10 U/ml) was 1660 cpm, the 3H-thymidine uptake ([5]; 0.001 μg/ml, IL-2 50 U/ml) was 57600 cpm and the 3H-thymidine uptake ([5]; 0.01 μg/ml, IL-2 10 U/ml) was 1285 cpm. It also gave a 3H-thymidine uptake ([5]; 0.01 μg/ml, IL-2 50 U/ml) of 32955 cpm, a 3H-thymidine uptake ([5]; 0.1 μg/ml, IL-2 10 U/ml) of 1125 cpm and a 3H-thymidine uptake ([5]; 0.1 μg/ml, IL-2 50 U/ml) of 24600 cpm. The 3H-thymidine uptake ([5]; 1 μg/ml, IL-2 10 U/ml) was 1300 cpm, the 3H-thymidine uptake ([5]; 1 μg/ml, IL-2 50 U/ml) was 25525 cpm and the inhibition at 0.0001 µg/mL ([5]; 0.0001 μg/ml, IL-2 10 U/ml) was 0%. It also gave an inhibition at 0.0001 µg/mL ([5]; 0.0001 μg/ml, IL-2 50 U/ml) of 0%, an inhibition at 0.001 µg/mL ([5]; 0.001 μg/ml, IL-2 10 U/ml) of 46.7% and an inhibition at 0.001 µg/mL ([5]; 0.001 μg/ml, IL-2 50 U/ml) of 4.5%. For the same compound, the inhibition at 0.01 µg/mL ([5]; 0.01 μg/ml, IL-2 10 U/ml) was 62.1%, the inhibition at 0.1 µg/mL ([5]; 0.1 μg/ml, IL-2 10 U/ml) was 68.6% and the inhibition at 0.1 µg/mL ([5]; 0.1 μg/ml, IL-2 50 U/ml) was 59.4%. It also gave an inhibition at 1 µg/mL ([5]; 1 μg/ml, IL-2 10 U/ml) of 61.5%, an inhibition at 1 µg/mL ([5]; 1 μg/ml, IL-2 50 U/ml) of 58% and an inhibition at 0.01 µg/mL ([5]; 0.01 μg/ml, IL-2 50 U/ml) of 45.5%.
